Results from the supplement of paper PMC10307832.

Columns and labels:
Assay in all cases: relative viability (nuclei count vs DMSO), 5 days (fraction); higher = more cells survive
[1] = compound: O=C(C[C@H]1NCCC[C@@H]1O)Cn1cnc2cc(Br)c(Cl)cc2c1=O (racemic) [Halofuginone] + CC(C)C[C@H](NC(=O)[C@H](Cc1ccccc1)NC(=O)c1cnccn1)B(O)O [Bortezomib] (partner 0.002 µM)
Procedure, shortened: (§1)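 Lung cancer cell lines in 1536-well plates got either a single drug or a fixed anchor-drug dose together with five library-drug doses (not always all listed) in √10 steps, by pin tool, on the day after seeding. Nuclei were counted after 5 days, and relative viability is the treated-to-vehicle ratio of nuclei counts. Values are medians of duplicate plates.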

Cediranib + Dasatinib = compound: COc1cc2c(Oc3ccc4[nH]c(C)cc4c3F)ncnc2cc1OCCCN1CCCC1 [Cediranib] + Cc1nc(Nc2ncc(C(=O)Nc3c(C)cccc3Cl)s2)cc(N2CCN(CCO)CC2)n1 [Dasatinib] (partner 0.075 µM)
Procedure, shortened: as §1

[2] = compound: O=C(C[C@H]1NCCC[C@@H]1O)Cn1cnc2cc(Br)c(Cl)cc2c1=O (racemic) [Halofuginone] + Nc1nc2[nH]cc(CCc3ccc(C(=O)N[C@@H](CCC(=O)O)C(=O)O)cc3)c2c(=O)[nH]1 [Pemetrexed] (partner 0.2 µM)
Procedure, shortened: as §1

Decitabine + Olaparib = compound: Nc1ncn([C@H]2C[C@H](O)[C@@H](CO)O2)c(=O)n1 [Decitabine] + O=C(c1cc(Cc2n[nH]c(=O)c3ccccc23)ccc1F)N1CCN(C(=O)C2CC2)CC1 [Olaparib] (partner 8 µM)
Procedure, shortened: as §1

Cell Line | relative viability ([1]; first compound 0.001 µM) | relative viability ([1]; first compound 0.003162 µM) | relative viability ([1]; first compound 0.01 µM) | relative viability ([1]; first compound 0.03162 µM) | relative viability ([1]; first compound 0.1 µM) | relative viability (Cediranib + Dasatinib; first compound 0.04 µM) | relative viability (Cediranib + Dasatinib; first compound 0.1265 µM) | relative viability (Cediranib + Dasatinib; first compound 0.4 µM) | relative viability (Cediranib + Dasatinib; first compound 1.265 µM) | relative viability (Cediranib + Dasatinib; first compound 4 µM) | relative viability ([2]; first compound 0.001 µM) | relative viability ([2]; first compound 0.003162 µM) | relative viability ([2]; first compound 0.01 µM) | relative viability ([2]; first compound 0.03162 µM) | relative viability ([2]; first compound 0.1 µM) | relative viability (Decitabine + Olaparib; first compound 0.04 µM) | relative viability (Decitabine + Olaparib; first compound 0.1265 µM) | relative viability (Decitabine + Olaparib; first compound 0.4 µM) | relative viability (Decitabine + Olaparib; first compound 1.265 µM) | relative viability (Decitabine + Olaparib; first compound 4 µM)
NCI-H2405 | 1.07 | 0.948 | 0.968 | 0.943 | 0.904 | 0.2 | 0.583 | 0.227 | 0.196 | 0.218 | 1.14 | 1.07 | 0.978 | 0.989 | 0.638 | 0.613 | 0.467 | 0.374 | 0.313 | 0.312
NCI-H3122 | 1.05 | 1.06 | 1 | 0.954 | 1.04 | 0.901 | 0.694 | 0.731 | 0.542 | 0.897 | 0.207 | 0.191 | 0.205 | 0.189 | 0.198 | 0.34 | 0.307 | 0.225 | 0.201 | 0.206
PC-3 [JPC-3] | 0.852 | 0.875 | 0.736 | 0.799 | 0.873 | 1.09 | 1.1 | 0.966 | 1.04 | 0.909 | 1.1 | 1.12 | 0.983 | 1.21 | 0.854 | – | 0.762 | 0.368 | 0.465 | 0.455
PC-14 | 0.865 | 0.819 | 0.697 | 0.13 | 0.0654 | 0.235 | 0.27 | 0.243 | 0.224 | 0.0965 | 0.153 | 0.148 | 0.143 | 0.163 | 0.164 | 0.114 | 0.0887 | 0.0551 | 0.0482 | 0.0711
RERF-LC-KJ | 1.23 | 1.12 | 1.15 | 1.17 | 1.04 | 0.823 | 0.695 | 0.842 | 0.834 | 0.838 | 0.452 | 0.45 | 0.434 | 0.454 | 0.461 | 0.615 | 0.608 | – | 0.448 | 0.495
SK-LU-1 | 1.28 | 0.931 | 0.955 | 1.31 | 0.821 | 0.184 | 0.244 | 0.175 | 0.175 | 0.202 | 1.03 | 0.981 | 0.912 | 0.921 | 0.409 | 0.274 | 0.244 | 0.214 | 0.247 | 0.253
SW 1573 | 1.03 | 1.02 | 1.15 | 0.653 | 0.227 | 0.646 | 0.661 | 0.43 | 0.389 | 0.524 | 0.914 | – | 0.775 | 0.574 | 0.208 | 0.257 | 0.239 | 0.17 | 0.127 | 0.111
